Legend:
[1] = test system: DC2.4 cells; assay: In vitro transfection of DC2.4 cells with EGFP mRNA LNP preparation (flow cytometry); type: cell-based, mouse; settings: for Cell Viability / Positive Rate (EGFP) / Fluorescence Intensity: DC2.4 cells; for Cell Viability / Positive Rate (EGFP): EGFP mRNA LNP, 200 ng mRNA per well, flow cytometry; for Fluorescence Intensity: EGFP mRNA expression level, normalized based on the sample with the highest fluorescence intensity
Excerpt: The description is based on peripheral blood mononuclear cells PBMC (Shanghai Oribiotech Co., Ltd.), human peripheral blood leukemia T cell Jurkat (ATCC), tumor infiltrating lymphocyte TIL (isolated from resected tumor tissue of a liver cancer patient, the preparation method refers to CN114763530A), mouse bone marrow-derived dendritic cells DC2.4 (Cell Bank of the Chinese Academy of Sciences), and Chinese hamster ovary cells CHO (ATCC) were used as verified cell lines for liposome transfection. PBMC, Jurkat, and TIL cells grew in suspension, while DC2.4 and CHO cells grew by adherent culture. All the operation steps of cell culture must strictly abide by the prescribed procedures, and sterile reagents is used to perform aseptic operations under a sterile workbench. The main steps are as follows: • 1) Cell recovery: the preserved cell cryopreservation solution was taken out of the −80° C. refrigerator, and was immediately put in a 37° C. water bath for rapid and continuous shaking, and was completely melted within one minute. Fresh medium was added to the 15 mL centrifuge tube in advance, and the cell solution was added to the centrifuge tube in a biological safety cabinet. A centrifuge tube of the same quality was taken and placed symmetrically in a centrifuge, centrifuged at a low speed at 1200 rpm for 5 min. After centrifugation, the supernatant was removed, and an appropriate amount of medium was slowly added along the tube wall. After the cells were evenly dispersed by blowing gently, the cell suspension was pipette and added to the culture bottle prepared in advance. The state and distribution of the cells in the early stage of recovery were observed under a microscope. The culture bottle was placed in a 5% CO2 incubator and incubated at 37° C., and the recovery time was recorded. • 2) Cell subculture: Under the microscope, if the cell density in the field of view reaches 80%-90%, the cells can be subcultured. Adherent cells need to be digested with trypsin. In order to avoid the residual serum in the culture medium to reduce the activity of trypsin, DPBS solution was added to wash once after removing the original culture medium. After remove the DPBS solution, trypsin was added to degrade the protein at the junction between cells. This separates the cells for further culture. The cells were gently shaked evenly and put into the incubator for digestion for 2 min. Immediately after the digestion was completed, an appropriate amount of medium was added to the original petri dish to terminate the digestion. Finally, the cells were carefully blowed off using a pipette and blowed until they are evenly dispersed, and then inoculated and subcultured at a certain ratio according to the experimental requirements. […]
• 1) DC2.4 cells recovery: the frozen DC2.4 cells were taken out from the −80° C. refrigerator, put in a 37° C. water bath to quickly thaw the cells, added to the preheated medium after thawing, centrifuged at 1200 rpm for 5 min, the supernatant was discarded, and an appropriate amount of DMEM medium with 10% FBS was added to resuspend the recovered DC2.4, and placed in a 5% CO2 incubator at 37° C. for activation and culture. • 2) According to the experimental arrangement, DC2.4 cells were plated on a 24-well plate one day in advance for cell transfection. Through cell counting, the number of cells and cell viability were recorded, the cell suspension were taken at 2×10^5 cells per well, then a certain volume of DMEM medium containing 10% FBS was added and mixed evenly, 1 mL of mixture was added to each well for subsequent transfection experiment. • 3) After 24 hours, the medium was gently removed 30 minutes in advance by a pipette, 1 mL DPBS was added to each well for washing and then removed, then 300 μL serum-free Opti-MEM medium was added to each well for subsequent transfection experiments.
Subsequent steps are the same as the transfection protocol for PBMC cells. […]

[2] = test system: PBMC cells; assay: In vitro transfection of PBMC cells with EGFP mRNA LNP preparation (flow cytometry); type: cell-based; parameters: Cell Viability: concentration or dose not given beside the values; settings: for Cell Viability / Positive Rate (EGFP): LNP preparation added with ApoE4; for Fluorescence Intensity: with ApoE4, EGFP mRNA expression level normalized based on the sample with the highest fluorescence intensity
Excerpt: The description is based on peripheral blood mononuclear cells PBMC (Shanghai Oribiotech Co., Ltd.), human peripheral blood leukemia T cell Jurkat (ATCC), tumor infiltrating lymphocyte TIL (isolated from resected tumor tissue of a liver cancer patient, the preparation method refers to CN114763530A), mouse bone marrow-derived dendritic cells DC2.4 (Cell Bank of the Chinese Academy of Sciences), and Chinese hamster ovary cells CHO (ATCC) were used as verified cell lines for liposome transfection. PBMC, Jurkat, and TIL cells grew in suspension, while DC2.4 and CHO cells grew by adherent culture. All the operation steps of cell culture must strictly abide by the prescribed procedures, and sterile reagents is used to perform aseptic operations under a sterile workbench. The main steps are as follows: • 1) Cell recovery: the preserved cell cryopreservation solution was taken out of the −80° C. refrigerator, and was immediately put in a 37° C. water bath for rapid and continuous shaking, and was completely melted within one minute. Fresh medium was added to the 15 mL centrifuge tube in advance, and the cell solution was added to the centrifuge tube in a biological safety cabinet. A centrifuge tube of the same quality was taken and placed symmetrically in a centrifuge, centrifuged at a low speed at 1200 rpm for 5 min. After centrifugation, the supernatant was removed, and an appropriate amount of medium was slowly added along the tube wall. After the cells were evenly dispersed by blowing gently, the cell suspension was pipette and added to the culture bottle prepared in advance. The state and distribution of the cells in the early stage of recovery were observed under a microscope. The culture bottle was placed in a 5% CO2 incubator and incubated at 37° C., and the recovery time was recorded. • 2) Cell subculture: Under the microscope, if the cell density in the field of view reaches 80%-90%, the cells can be subcultured. Adherent cells need to be digested with trypsin. In order to avoid the residual serum in the culture medium to reduce the activity of trypsin, DPBS solution was added to wash once after removing the original culture medium. After remove the DPBS solution, trypsin was added to degrade the protein at the junction between cells. This separates the cells for further culture. The cells were gently shaked evenly and put into the incubator for digestion for 2 min. Immediately after the digestion was completed, an appropriate amount of medium was added to the original petri dish to terminate the digestion. Finally, the cells were carefully blowed off using a pipette and blowed until they are evenly dispersed, and then inoculated and subcultured at a certain ratio according to the experimental requirements.
• 1) Coating antibodies: 6-well plates were pre-coated, CD3 and CD28 antibodies were taken out from the −20° C. refrigerator, and melted for later use. The above two antibodies were added into the DPBS solution at a concentration of 5 µg/mL, mixed well, added into a six-well plate at 1 mL/well, put in a 37° C. incubator, and waited 4 hours for later use. • 2) PBMC recovery: the frozen PBMC cells were taken out from the −80° C. refrigerator, put in a 37° C. water bath to quickly thaw the cells, added to the preheated medium after thawing, centrifuged at 1200 rpm for 5 min, the supernatant was discarded, and an appropriate amount of AIMN-V medium with 500 U/ml IL-2 was added to resuspend PBMC. • 3) the DPBS coated with the antibody was removed with a pipette, the cell suspension was transferred to a six-well plate pre-coated with the antibody at 4 mL per well, placed in a 5% CO2 incubator at 37° C. for 3-5 days for activation and culture. • 4) According to the experimental arrangement, PBMC cells were plated on a 24-well plate 30 minutes in advance on the day of cell transfection. […]

Row | Structure (SMILES) | Cell Viability [1] | Positive Rate (EGFP) [1] | Fluorescence Intensity [1] | Cell Viability ([2]; PBMCs) | Positive Rate (EGFP) ([2]; PBMCs) | Fluorescence Intensity ([2]; PBMCs) | cell viability by flow cytometry (FIG. 1) ([1]; DC2.4, after in vitro transfection) | transfection efficiency (FIG. 2) ([1]; DC2.4, in the absence of AopE4) | transfection efficiency (FIG. 2) ([2]; PBMC, in the absence of AopE4) | transfection efficiency (FIG. 3) ([2]; PBMC, with ApoE4) | change of transfection efficiency with ApoE4 (FIG. 3) ([2]; PBMC, with ApoE4 versus without) | cell viability by flow cytometry (FIG. 1) ([2]; PBMCs, after in vitro transfection, ApoE4 did not affect viability)
1 | CCCCCCCCCCCCCCC(O)CN(CCOCCOCCOCCN(CCOCCOCCOCCN(CC(O)CCCCCCCCCCCCCC)CC(O)CCCCCCCCCCCCCC)CCN1CCN(CCOCCOCCOCCN(CC(O)CCCCCCCCCCCCCC)CC(O)CCCCCCCCCCCCCC)CC1)CC(O)CCCCCCCCCCCCCC [D-C16] | 91.1% | 71.7% | 0.82 | 82.20% | 71.70% | 0.32 | – | – | – | – | – | –
2 | CCCCCCCCCCC(O)CN(CCOCCOCCOCCN(CCOCCOCCOCCN(CC(O)CCCCCCCCCC)CC(O)CCCCCCCCCC)CCN1CCN(CCOCCOCCOCCN(CC(O)CCCCCCCCCC)CC(O)CCCCCCCCCC)CC1)CC(O)CCCCCCCCCC [D-C12] | 90.8% | 65.6% | 0.07 | 85.60% | 65.60% | 0.27 | – | – | – | – | – | –
3 | CCCCCCCCCCC(O)CN(CCOCCN(CCOCCN(CC(O)CCCCCCCCCC)CC(O)CCCCCCCCCC)CCN1CCN(CCOCCN(CC(O)CCCCCCCCCC)CC(O)CCCCCCCCCC)CC1)CC(O)CCCCCCCCCC (stereo not drawn) [B-C12, 19-(2-(4-(2-(2-(di(2-hydroxydodecyl)amino)ethoxy)ethyl)piperazin-1-yl)ethyl)-13, 15-bis(2-hydroxydodecyl)-16,22-dioxa-13,19,25-triazaheptakadecane-11,27-diol] | 85.0% | 83.0% | 0.20 | 85.00% | 83.00% | 0.81 | – | – | – | – | – | –
4 | CCCCCCCCCCCCC(O)CN(CCN1CCN(CCN(CCN(CC(O)CCCCCCCCCCCC)CC(O)CCCCCCCCCCCC)CCN(CC(O)CCCCCCCCCCCC)CC(O)CCCCCCCCCCCC)CC1)CC(O)CCCCCCCCCCCC (stereo not drawn) [A-C14] | 95.4% | 92.3% | 0.30 | 91.20% | 72.30% | 0.76 | – | – | – | – | – | –
5 | CCCCCCCCCCCCC(O)CN(CCOCCN(CCOCCN(CC(O)CCCCCCCCCCCC)CC(O)CCCCCCCCCCCC)CCN1CCN(CCOCCN(CC(O)CCCCCCCCCCCC)CC(O)CCCCCCCCCCCC)CC1)CC(O)CCCCCCCCCCCC (stereo not drawn) [B-C14] | 95.0% | 90.2% | 1.00 | 90.00% | 85.50% | 1 | high viability | high transfection efficiency | low transfection efficiency | over 75% | increased | high viability
6 | CCCCCCCCCCCCCCCCC(O)CN(CCN1CCN(CCN(CCN(CC(O)CCCCCCCCCCCCCCCC)CC(O)CCCCCCCCCCCCCCCC)CCN(CC(O)CCCCCCCCCCCCCCCC)CC(O)CCCCCCCCCCCCCCCC)CC1)CC(O)CCCCCCCCCCCCCCCC (stereo not drawn) [A-C18] | 93.0% | 61.9% | 0.87 | 85.00% | 81.90% | 0.87 | – | – | – | – | – | –
7 | CCCCCCCCCCCCC(O)CN(CCOCCOCCOCCN(CCOCCOCCOCCN(CC(O)CCCCCCCCCCCC)CC(O)CCCCCCCCCCCC)CCN1CCN(CCOCCOCCOCCN(CC(O)CCCCCCCCCCCC)CC(O)CCCCCCCCCCCC)CC1)CC(O)CCCCCCCCCCCC [D-C14] | 91.3% | 96.7% | 0.95 | 88.70% | 96.70% | 0.25 | – | – | – | – | – | –
8 | CCCCCCCCCCCCCCCCC(O)CC(CCOCCOCCOCCN(CCOCCOCCOCCN(CC(O)CCCCCCCCCCCCCCCC)CC(O)CCCCCCCCCCCCCCCC)CCN1CCN(CCOCCOCCOCCN(CC(O)CCCCCCCCCCCCCCCC)CC(O)CCCCCCCCCCCCCCCC)CC1)CC(O)CCCCCCCCCCCCCCCC [D-C18] | 81.5% | 64.4% | 0.45 | 83.30% | 64.40% | 0.41 | – | – | – | – | – | –
9 | CCCCCCCCCCC(O)CN(CCOCCOCCN(CCOCCOCCN(CC(O)CCCCCCCCCC)CC(O)CCCCCCCCCC)CCN1CCN(CCOCCOCCN(CC(O)CCCCCCCCCC)CC(O)CCCCCCCCCC)CC1)CC(O)CCCCCCCCCC (stereo not drawn) [C-C12] | 94.0% | 64.4% | 0.71 | 89.30% | 56.50% | 0.41 | – | – | – | – | – | –
10 | CCCCCCCCCCCCC(O)CN(CCOCCOCCOCCN(CCOCCOCCOCCN(CC(O)CCCCCCCCCCCC)CC(O)CCCCCCCCCCCC)CCN1CCN(C)CC1)CC(O)CCCCCCCCCCCC (stereo not drawn) [H-C14] | 91.7% | 66.8% | 0.52 | 81.70% | 62.10% | 0.07 | – | – | – | – | – | –

Reference: patent publication US20250345277A1, “Ionizable Liposome, Preparation Thereof, and Application Thereof in Gene Delivery” (MAXIRNA (ZHEJIANG) TECHNOLOGY CO. LTD., priority 2021, published 2025)
